A word on the pIC50: it is −log10 of the IC50, conventionally taken in molar units. Usually pKi stands for −log10 of the Ki, conventionally taken in molar units.

pIC50, pKi: −log10 of the molar value.

For six compounds, IC50 and Ki results are on record in ChEMBL document CHEMBL1909046, “DrugMatrix in vitro pharmacology data”.

Data set [1] concerns the target Protein phosphatase 3 catalytic subunit alpha (Homo sapiens, UniProt Q08209). Also on record: species or system Escherichia coli.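 Also: inhibition of calcineurin (PP2B) enzyme activity, measured with DiFMUP as the substrate; in other assays of this panel Not Active means under 50% inhibition at 10 µM.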
The next data set deals with Melanocortin receptor 5 (Homo sapiens, UniProt P33032). It is filed as cell membranes, HEK293, Membrane.
Melanocortin receptor 5, sequence (P33032 whole entry): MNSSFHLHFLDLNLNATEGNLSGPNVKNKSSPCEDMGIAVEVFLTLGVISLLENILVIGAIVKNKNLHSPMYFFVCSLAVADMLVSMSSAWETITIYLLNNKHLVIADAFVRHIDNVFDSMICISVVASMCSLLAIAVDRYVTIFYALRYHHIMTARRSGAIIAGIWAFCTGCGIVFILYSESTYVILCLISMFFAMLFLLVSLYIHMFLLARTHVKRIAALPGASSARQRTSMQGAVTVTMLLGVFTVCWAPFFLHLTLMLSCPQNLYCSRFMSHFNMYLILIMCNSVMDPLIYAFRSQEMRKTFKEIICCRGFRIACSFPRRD
Data set [2] is described as follows: DRUGMATRIX: Glutamate, NMDA, Phencyclidine radioligand binding (ligand: [3H] TCP). Particulars: Not Active = under 50% inhibition at 10 µM. It is filed as cell membranes, Rattus norvegicus, Wistar, Cerebral cortex, Membrane.
The next data set deals with Cytochrome P450 2C19 (Homo sapiens, UniProt P33261). Particulars: bti-tn-5b1-4.
Cytochrome P450 2C19, sequence (P33261 whole entry): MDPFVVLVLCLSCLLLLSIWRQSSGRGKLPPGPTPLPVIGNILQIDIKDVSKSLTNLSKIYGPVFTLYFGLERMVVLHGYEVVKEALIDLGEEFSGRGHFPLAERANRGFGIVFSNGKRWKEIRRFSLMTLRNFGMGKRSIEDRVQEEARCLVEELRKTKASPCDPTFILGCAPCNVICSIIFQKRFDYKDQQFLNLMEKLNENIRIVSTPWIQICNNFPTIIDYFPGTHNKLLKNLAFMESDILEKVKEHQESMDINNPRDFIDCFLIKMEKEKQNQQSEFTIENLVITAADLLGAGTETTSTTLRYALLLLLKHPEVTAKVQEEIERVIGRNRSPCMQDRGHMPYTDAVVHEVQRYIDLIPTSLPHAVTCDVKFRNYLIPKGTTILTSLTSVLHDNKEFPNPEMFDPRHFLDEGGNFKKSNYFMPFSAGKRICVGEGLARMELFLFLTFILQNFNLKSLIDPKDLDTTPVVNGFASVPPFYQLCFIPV
A further data set deals with Cytochrome P450 3A4 (Homo sapiens, UniProt P08684). The conditions noted are these: bti-tn-5b1-4.
Cytochrome P450 3A4, sequence (P08684 whole entry): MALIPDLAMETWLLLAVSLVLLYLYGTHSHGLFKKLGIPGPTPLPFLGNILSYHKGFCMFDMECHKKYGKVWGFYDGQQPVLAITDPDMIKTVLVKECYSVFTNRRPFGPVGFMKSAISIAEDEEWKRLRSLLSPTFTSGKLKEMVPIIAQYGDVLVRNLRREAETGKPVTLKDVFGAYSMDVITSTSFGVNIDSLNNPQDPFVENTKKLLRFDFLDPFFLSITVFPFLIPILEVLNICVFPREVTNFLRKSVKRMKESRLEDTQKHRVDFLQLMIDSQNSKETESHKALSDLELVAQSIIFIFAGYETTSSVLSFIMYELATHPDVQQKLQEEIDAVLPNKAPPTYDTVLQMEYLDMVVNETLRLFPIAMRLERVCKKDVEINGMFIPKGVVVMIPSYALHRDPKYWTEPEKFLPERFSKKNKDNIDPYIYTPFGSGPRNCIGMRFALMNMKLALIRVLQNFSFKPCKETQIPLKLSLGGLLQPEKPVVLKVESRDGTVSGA
Data set [3] can be described thus: DRUGMATRIX: Phosphodiesterase PDE4 enzyme inhibition (substrate: [3H]cAMP + cAMP). Particulars: u-937, Not Active = under 50% inhibition at 10 µM.
In data set [4] the target is Delta-type opioid receptor (Homo sapiens, UniProt P41143). The class given is cell membranes, HEK293, Membrane. Also: in other assays of this panel Not Active means under 50% inhibition at 10 µM.
Delta-type opioid receptor, sequence (P41143 whole entry): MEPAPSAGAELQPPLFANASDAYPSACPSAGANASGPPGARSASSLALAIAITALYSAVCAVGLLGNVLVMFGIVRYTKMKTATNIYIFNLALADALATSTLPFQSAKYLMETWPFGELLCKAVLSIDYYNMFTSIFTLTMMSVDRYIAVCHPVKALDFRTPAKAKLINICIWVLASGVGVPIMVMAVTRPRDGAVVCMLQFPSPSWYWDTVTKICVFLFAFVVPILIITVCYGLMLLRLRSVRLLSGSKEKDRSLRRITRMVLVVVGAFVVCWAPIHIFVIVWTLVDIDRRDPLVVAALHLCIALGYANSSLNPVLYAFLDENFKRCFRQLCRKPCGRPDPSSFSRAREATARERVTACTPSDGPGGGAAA

Consider `CN(CCOc1ccc(C[C@H](Nc2ccccc2C(=O)c2ccccc2)C(=O)O)cc1)c1ccccn1`, for which the IC50 result (in data set [1]; against Melanocortin receptor 5 (hek293); in data set [2]; against Cytochrome P450 2C19; on Cytochrome P450 3A4) was “Not Active” throughout. Further, the Ki entry (in data set [2]; on Cytochrome P450 2C19; at Cytochrome P450 3A4) was “Not Active” throughout. Moreover, the negative logarithm of the IC50 (pIC50) in data set [3] (read-out: IC50) is 5.13; in data set [4] (read-out: IC50), 5.49. In addition, the pKi in data set [4] (read-out: Ki) was 5.95.

`c1ccc2sc(SSc3nc4ccccc4s3)nc2c1` [BENZOTHIAZYL DISULFIDE]: the IC50 result (in data set [1]; in data set [2]; at Cytochrome P450 2C19; on Cytochrome P450 3A4; in data set [3]; in data set [4] (hek293)) was “Not Active” each time. On Melanocortin receptor 5 (read-out: IC50), the pIC50 is 5.41. For the same compound, the pKi on Melanocortin receptor 5 (read-out: Ki) was 5.43. The Ki entry (in data set [2]; at Cytochrome P450 2C19; on Cytochrome P450 3A4; in data set [3]) was “Not Active” in each case.

As to `COc1ccc(C[C@H](N)C(=O)N[C@H]2[C@@H](O)[C@H](n3cnc4c(N(C)C)ncnc43)O[C@@H]2CO)cc1` [PUROMYCIN], the IC50 result (in data set [1]; against Melanocortin receptor 5 (hek293); in data set [2]; on Cytochrome P450 2C19; against Cytochrome P450 3A4; in data set [3]) was “Not Active” in each case. The IC50 result in data set [4] (hek293) was “Not Active”. For the same compound, the Ki result (in data set [2]; at Cytochrome P450 2C19; at Cytochrome P450 3A4; in data set [3]) was “Not Active” throughout.

As for `O=c1[nH]c2ccccc2c2ccccc12`, the IC50 result (in data set [1]; on Melanocortin receptor 5 (hek293); in data set [2]; against Cytochrome P450 2C19; on Cytochrome P450 3A4; in data set [3]) was “Not Active” each time. In data set [4] (hek293), the IC50 entry is recorded as “Not Active”. Further, the Ki result (in data set [2]; on Cytochrome P450 2C19; at Cytochrome P450 3A4; in data set [3]) was “Not Active” each time.

With COPPER(II) OXIDE, the IC50 entry (in data set [1]; at Melanocortin receptor 5 (hek293); in data set [2]; against Cytochrome P450 2C19; on Cytochrome P450 3A4; in data set [3]) was “Not Active” each time. In addition, the IC50 entry in data set [4] (hek293) is reported as “Not Active”. In addition, the Ki entry (in data set [1]; on Melanocortin receptor 5 (hek293); in data set [2]; at Cytochrome P450 2C19; on Cytochrome P450 3A4; in data set [3]) was “Not Active” each time. The Ki result in data set [4] (hek293) is given as “Not Active”.

With `CC12CCC(CC1)C(C)(C)O2` [EUCALYPTOL], the IC50 result (in data set [1]; against Melanocortin receptor 5 (hek293); in data set [2]; on Cytochrome P450 2C19; on Cytochrome P450 3A4; in data set [3]) was “Not Active” throughout. For the same compound, the IC50 entry in data set [4] (hek293) is recorded as “Not Active”. The Ki result (in data set [2]; at Cytochrome P450 2C19; on Cytochrome P450 3A4; in data set [3]) was “Not Active” in each case.
